For series [1], the system named is C57BL/6 J mice. The series can be described thus: PTZ-kindling-induced epileptic mice model. Format: in vivo. Here is the method:
The PTZ-kindling-induced epileptic mice model was monitored as previously described (Singh et al. [2021]). PTZ (30 mg/kg, subconvulsive dose) was dissolved in saline and administered via intraperitoneal injection. TpNPY was dissolved in saline and delivered through daily intravenous injection of increasing concentrations (0.25 mg/kg, 0.5 mg/kg and 1 mg/kg) 30 min before PTZ injections for 14 consecutive days. Randomized grouping was used to divide C57BL/6 mice into 7 groups with 10 mice in each group. Then, behavioral observation was carried out at the same time, until the seizure of mice was kindled. The PTZ-only group was not exposed to TpNPY, and the control group was only given saline.

The next series has as its system HT22 cells. The experiment in a line: HT22 cell viability (MTT assay). Type of series: cell-based, mouse. The following applies: for cell viability: 24 h. Here is the method: The HT22 cell line was obtained from the ATCC (Manassas, VA, USA) and cultured in DMEM medium with an additional 10% fetal bovine serum (Gibco, US origin), 1% penicillin (100 U/mL) and streptomycin 100 (µg/mL) in a humidified 5% CO2 atmosphere at 37 °C. Cell viability was evaluated by measuring the activity of mitochondrial dehydrogenases with 3-(4,5-dimethyl-2-thiazolyl) 2,5 diphenyl-2H-tetrazolium bromide (MTT) assay (Sigma-Aldrich, USA). Briefly, HT22 cells were seeded in 96-well plates at a density of 8 × 10^3 cells per well. After various drug incubation, cells were incubated in 0.5 mg/mL MTT solution for 4 h at 37 °C. The supernatant medium was then discarded, and 100 µL of DMSO per well was added to dissolve the violet-formazan crystals. The absorbance at 570 nm wavelength was then tested by SpectraMax M5 (Wallac, The Netherlands). Under the same cell culture conditions as the cell viability assay, cytotoxicity was also evaluated via LDH release using an LDH assay kit (Beyotime, China). After different treatments, the supernatant of the cell culture medium was collected and tested according to the manufacturer’s protocol. The absorbance at 490 nm wavelength of supernatant was recorded by SpectraMax M5 (Wallac, The Netherlands).

The test system of the next series is zebrafish larvae. The experiment in a line: Zebrafish larvae survival/mortality. Type of series: in vivo. The following applies: 24 h exposure, 6-dpf AB wild-type larvae. Here is the method:
The 6-day post-fertilization (6-dpf) AB wild-type zebrafish were treated with various concentrations of TpNPY for 24 h in zebrafish-specific E3 culture medium. The mortality of zebrafish was calculated based on the observation of their heartbeat. To trigger seizures, zebrafish larvae were subjected to zebrafish culture medium containing 10 mM PTZ (Sigma-Aldrich, purity ≥ 99%) in 96-well plates. Their locomotor behaviors were recorded using a digital video tracking system (ViewPoint Behavior Technology, France).

The subject of series [2] is C57BL/6 J mice. The series can be described thus: Morris water maze (MWM) test. Type of series: in vivo. The following applies: MWM test stage, n = 6. Here is the method: The Morris Water Maze (MWM) test assessed spatial learning and memory in mice (Bromley-Brits et al. [2011]). A circular pool (opaque with milk powder) was divided into four quadrants, with a hidden platform submerged in the third quadrant. Eight-week-old male C57BL/6 J mice were trained over five days (4 trials/day) to locate the platform, guided by visual cues. Escape latency (max 60 s) and platform stay time (30 s) were recorded. A probe trial (platform removed) was conducted 24 h post-training, recording time to the platform site, crossings, speed, and distance via a video camera connected to the ANY-maze Video Tracking System.

Series [3] concerns the target T1, NPY-Y1 receptor (NPY-Y1R) (Homo sapiens, UniProt P25929).
T1 chain: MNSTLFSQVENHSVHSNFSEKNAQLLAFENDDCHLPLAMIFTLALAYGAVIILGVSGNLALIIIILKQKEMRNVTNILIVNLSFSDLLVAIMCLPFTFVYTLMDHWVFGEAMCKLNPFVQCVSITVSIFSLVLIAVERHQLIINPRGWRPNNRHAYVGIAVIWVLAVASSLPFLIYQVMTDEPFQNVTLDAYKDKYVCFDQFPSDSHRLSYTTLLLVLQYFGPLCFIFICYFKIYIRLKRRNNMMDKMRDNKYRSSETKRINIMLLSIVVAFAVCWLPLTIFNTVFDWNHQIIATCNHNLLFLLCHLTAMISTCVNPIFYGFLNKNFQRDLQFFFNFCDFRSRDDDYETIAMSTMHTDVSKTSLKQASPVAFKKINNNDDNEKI
The experiment in a line: SPR. (In general: SPR reads the build-up and loss of mass on a sensor chip optically.)

Where no end group is shown, it is not given here.

The text below walks through data of publication PMC12858582, “A coral-derived neuropeptide suppresses pentylenetetrazol (PTZ)-induced epileptic seizures and improves recognition memory deficits by modulating NPY-Y1R” (Archives of Toxicology, 2025).

Take `C1CCc2nnnn2CC1` [PTZ, Pentylenetetrazole, reference compound]: the seizure score in the series with C57BL/6 J mice [1] (PTZ-treated group, PTZ 30 mg/kg i.p., no TpNPY, after 15 injections, mean ± SEM, SEM) is listed as 4.91 ± 0.41.

As usually defined, the cell viability is the share of living cells, or the viability signal relative to a control. Regarding `N[C@@H](CCC(=O)O)C(=O)O` [glutamate], the cell viability was 78.22% in the series on HT22 cells (10 mM glutamate), 64.78% in the series with HT22 cells (15 mM glutamate) and 40.82% in the series on HT22 cells (20 mM glutamate).

Take “VGGPPKRPESFKSMAELNAYLSDLAGYYTVIGRPRF-NH2 [TpNPY]”: the “mortality rate of zebrafish larvae” value in the series on zebrafish larvae (40 μM) is “approximately 50%”. In the series with zebrafish larvae (6-25 μM), the “survival rate of zebrafish larvae” value is “did not lead to any substantial changes in the survival rate”. Also, in the series with C57BL/6 J mice [1] (TpNPY without PTZ), the “behavior of mice, TpNPY alone” value is reported as “no obvious influence on the behavior of mice”. Further, the swimming speed entry in the series on C57BL/6 J mice [2] is recorded as “without affecting swimming speed”. For the same molecule, the “cell viability (cytotoxicity of TpNPY)” value in the series on HT22 cells (1.56 to 50 μM, 24 h incubation) was “did not elicit any significant changes in cell viability”.

A word on the Kd: it is the concentration at which binding is half-saturated. A higher Kd goes with lower affinity. With VGGPPKRPESFKSMAELNAYLSDLAGYYTVIGRPRF-NH2 [TpNPY], in series [3], the dissociation constant Kd worked out at 1980 nM.
